For 21 compounds, EC50 and IC50 results are on record in US10316017B2, “COT modulators and methods of use thereof” (Gilead Sciences, Inc., priority 2015, dated 2019).

Where two headings read alike, the source gives them in different places.

In assay [1] the test system is TNFα production in LPS-stimulated human monocytes. As to the kind of experiment: Cot Monocyte TNFα Cell Based Assay. As to conditions: Homo sapiens, Monocyte, read-out: EC50 TNF. In short, it runs like this: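 5,000 cells/well; cmpd 1 h, 37 °C, 0.5% DMSO final; LPS 50 pg/ml, 4 h, 37 °C; media TNFα by HTRF sandwich (cryptate/XL665), RT overnight; % control vs unstimulated/stimulated wells.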

Assay [2] has as its target T1, human Cot catalytic domain (30-397 amino acids) (Homo sapiens, UniProt P41279).
T1 construct: Purified recombinant human Cot catalytic domain (30-397 amino acids) was purchased from Cama Biosciences; purchased Cama Biosciences (so in the source)
As to the kind of experiment: High Throughput Cot Biochemical Assay (KinEASE TR-FRET). As to conditions: read-out: IC50 HTRF. In short, it runs like this:
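First, purified human Cot (aa 30-397) at 5 nM phosphorylates an XL665-labeled STK3 peptide (1 μM) at 400 μM ATP, pH 7.0, 0.1% DMSO. Then a europium-conjugated phospho-specific antibody binds the product, giving the TR-FRET signal.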
(In general: TR-FRET usually uses a lanthanide donor and a delayed reading to cut background.)

[3] abbreviates: TNFα in LPS-stimulated human monocytes.
Setting [4] is: Cot KinEASE TR-FRET (HTRF) biochemical assay, 400 μM ATP.
Setting [5] is: Cot biochemical HTRF (KinEASE TR-FRET) assay.
The mark [6] stands for this setting: LPS-stimulated human monocytes, TNFα TR-FRET.
Setting [7] is: Cot KinEASE TR-FRET, 400 μM ATP.

T1 sequence (P41279 30-397): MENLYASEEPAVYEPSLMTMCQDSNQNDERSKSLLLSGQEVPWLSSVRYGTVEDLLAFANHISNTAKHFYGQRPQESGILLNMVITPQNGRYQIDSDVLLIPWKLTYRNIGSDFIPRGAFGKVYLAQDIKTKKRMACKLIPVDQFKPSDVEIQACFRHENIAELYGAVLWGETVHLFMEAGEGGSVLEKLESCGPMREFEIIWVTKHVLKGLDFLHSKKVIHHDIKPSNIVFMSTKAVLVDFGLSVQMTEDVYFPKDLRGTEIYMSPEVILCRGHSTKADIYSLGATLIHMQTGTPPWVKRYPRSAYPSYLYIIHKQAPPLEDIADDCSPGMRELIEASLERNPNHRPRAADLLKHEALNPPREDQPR

By EC50 is commonly meant the concentration needed to bring the measured effect to its halfway point. The IC50 is the point on the concentration scale where inhibition reaches its midpoint. Take `[2H][C@](Nc1cc(Cl)c2ncc(C#N)c(NC3(C)CC(F)(F)C3)c2c1)(c1ccc(F)cc1)c1cn(C2CC2)nn1` [Example 212, (S)-8-chloro-6-(((1-cyclopropyl-1H-1,2,3-triazol-4-yl)(4-fluorophenyl)methyl-d)amino)-4-((3,3-difluoro-1-methylcyclobutyl)amino) quinoline-3-carbonitrile]: the EC50 in assay [1] (setting [3]) came out at 2180 nM. Besides, the IC50 in assay [2] (setting [4]) is 169 nM.
On to `CC(C)(C)N1CCC(n2cc([C@@H](Nc3cc(Cl)c4ncc(C#N)c(Nc5ccc(Cl)c(Cl)c5F)c4c3)c3ccccc3)nn2)CC1` [Example 781, (S)-6-(((1-(1-(tert-butyl)piperidin-4-yl)-1H-1,2,3-triazol-4-yl)(phenyl)methyl)amino)-8-chloro-4-((3,4-dichloro-2-fluorophenyl)amino)quinoline-3-carbonitrile], for which the concentration for a half-maximal effect (EC50) in assay [1] (setting [3]) amounted to 597 nM. For the same compound, the half-inhibitory concentration (IC50) in assay [2] (setting [5]) turned out to be 11 nM.
As to `[2H][C@@](Nc1cc(Cl)c2ncc(C#N)c(NC3CCOCC3(C)C)c2c1)(c1cn(C2CC2)nn1)c1ccccc1Cl` (stereo partly drawn) [Example 141, 8-chloro-6-(((S)-(2-chlorophenyl)(1-cyclopropyl-1H-1,2,3-triazol-4-yl)methyl-d)amino)-4-((3,3-dimethyltetrahydro-2H-pyran-4-yl)amino) quinoline-3-carbonitrile], the EC50 in assay [1] (setting [3]) is 72 nM. Also, the concentration for half-maximal inhibition (IC50) in assay [2] (setting [4]) worked out at 5 nM.
For the compound `Cc1nnc(C2(n3cc([C@@H](Nc4cc(C#N)c5ncc(C#N)c(NCC(C)(C)C)c5c4)c4ccccc4Cl)nn3)CC2)o1` [Example 1161, (S)-6-(((2-chlorophenyl)(1-(1-(5-methyl-1,3,4-oxadiazol-2-yl)cyclopropyl)-1H-1,2,3-triazol-4-yl)methyl)amino)-4-(neopentylamino)quinoline-3,8-dicarbonitrile], the concentration for a half-maximal effect (EC50) in assay [1] (setting [6]) was determined as 45 nM. In addition, the half-inhibitory concentration (IC50) in assay [2] (setting [7]) turned out to be 14 nM.
On to `[2H][C@](Nc1cc(Cl)c2ncc(C#N)c(NCCC3CC3)c2c1)(c1ccc(F)cc1)c1cn(C2CC2)nn1` [Example 269, (S)-8-chloro-6-(((1-cyclopropyl-1H-1,2,3-triazol-4-yl)(4-fluorophenyl)methyl-d)amino)-4-((2-cyclopropylethyl)amino)quinoline-3-carbonitrile], for which the EC50 in assay [1] (setting [3]) came to 4520 nM. For the same compound, the IC50 in assay [2] (setting [4]) amounted to 253 nM.
On to `[2H][C@](Nc1cc(Cl)c2ncc(C#N)c(NNC(C)(C)C)c2c1)(c1ccc(F)cc1)c1cn(C2CC2)nn1` [Example 310, (S)-4-(2-(tert-butyl)hydrazinyl)-8-chloro-6-(((1-cyclopropyl-1H-1,2,3-triazol-4-yl)(4-fluorophenyl)methyl-d)amino)quinoline-3-carbonitrile], for which the EC50 in assay [1] (setting [3]) was 2360 nM. Also, in assay [2] (setting [4]), the 50% inhibitory concentration (IC50) is more than 10000 nM.
Consider `N#Cc1cnc2c(Cl)cc(N[C@@H](c3ccc(F)cc3)c3cn(-c4ccncc4)nn3)cc2c1Nc1cnc(F)c(F)c1` [Example 388, (S)-8-chloro-4-((5,6-difluoropyridin-3-yl)amino)-6-(((4-fluorophenyl)(1-(pyridin-4-yl)-1H-1,2,3-triazol-4-yl)methyl)amino)quinoline-3-carbonitrile], for which the EC50 in assay [1] (setting [3]) stood at 1260 nM. The IC50 in assay [2] (setting [4]) came out at 83 nM.
Regarding `[2H][C@](Nc1cc(-c2cncnc2)c2ncc(C#N)c(NCC(C)(C)C)c2c1)(c1ccc(F)cc1)c1cn(C2CC2)nn1` [Compound 12], the EC50 in assay [1] (setting [3]) came out at 205 nM. Further, the IC50 in assay [2] (setting [4]) worked out at 20 nM.
Take `CC(C)(C)N1CCC(n2cc([C@@H](Nc3cc(Cl)c4ncc(C#N)c(Nc5ccc(F)c(Cl)c5)c4c3)c3cccc(C(=O)N4CC(F)C4)c3)nn2)CC1` [Example 646, (S)-6-(((1-(1-(tert-butyl)piperidin-4-yl)-1H-1,2,3-triazol-4-yl)(3-(3-fluoroazetidine-1-carbonyl)phenyl)methyl)amino)-8-chloro-4-((3-chloro-4-fluorophenyl)amino)quinoline-3-carbonitrile]: the EC50 in assay [1] (setting [3]) is 49 nM. Moreover, the IC50 in assay [2] (setting [5]) came out at 1 nM.
With `[2H][C@](Nc1cc(Cl)c2ncc(C#N)c(Nc3cccc(Cl)c3OC(F)(F)F)c2c1)(c1ccc(F)cc1)c1cn(C2CC2)nn1` [Example 966, (S)-8-chloro-4-((3-chloro-2-(trifluoromethoxy)phenyl)amino)-6-(((1-cyclopropyl-1H-1,2,3-triazol-4-yl)(4-fluorophenyl)methyl-d)amino)quinoline-3-carbonitrile], the EC50 in assay [1] (setting [6]) was not below 1000 nM. Moreover, the half-inhibitory concentration (IC50) in assay [2] (setting [7]) was determined as 86 nM.
In the case of `[2H][C@](Nc1cc(Cl)c2ncc(C#N)c(NC3(CC)CC3)c2c1)(c1ccc(F)cc1)c1cn(C2CC2)nn1` [Example 216, (S)-8-chloro-6-(((1-cyclopropyl-1H-1,2,3-triazol-4-yl)(4-fluorophenyl)methyl-d)amino)-4-((1-ethylcyclopropyl)amino)quinoline-3-carbonitrile], the EC50 in assay [1] (setting [3]) was 5720 nM. In addition, in assay [2] (setting [4]), the IC50 was determined as 492 nM.
Turning to `[2H][C@](Nc1cc(Cl)c2ncc(C#N)c(N[C@H](CCN3CCCCC3)c3ccccc3)c2c1)(c1ccc(F)cc1)c1cn(C2CC2)nn1` [Example 166, 8-chloro-6-(((1-cyclopropyl-1H-1,2,3-triazol-4-yl)(4-fluorophenyl)methyl-d)amino)-4-(((R)-1-phenyl-3-(piperidin-1-yl)propyl)amino)quinoline-3-carbonitrile], the EC50 in assay [1] (setting [3]) stood at 979 nM. The half-maximal inhibitory concentration (IC50) in assay [2] (setting [4]) was 61 nM.
For `CC[C@@H](Nc1c(C#N)cnc2c(Cl)cc(N[C@@H](c3cccc(N(C)C(C)=O)c3)c3cn(C4CCN(C(C)(C)C)CC4)nn3)cc12)c1ccccc1` [Example 564, N-(3-((S)-(1-(1-(tert-butyl)piperidin-4-yl)-1H-1,2,3-triazol-4-yl)((8-chloro-3-cyano-4 (((R)-1-phenylpropyl)amino)quinolin-6-yl)amino)methyl)phenyl)-N-methylacetamide], the EC50 in assay [1] (setting [3]) turned out to be 68 nM. In addition, in assay [2] (setting [5]), the IC50 was 1 nM.
`[2H][C@](Nc1cc(Cl)c2ncc(C#N)c(Nc3ccccc3OC(F)(F)F)c2c1)(c1ccc(F)cc1)c1cn(C2CC2)nn1` [Example 126, (S)-8-chloro-6-(((1-cyclopropyl-1H-1,2,3-triazol-4-yl)(4-fluorophenyl)methyl-d)amino)-4-((2-(trifluoromethoxy)phenyl)amino)quinoline-3-carbonitrile]: the 50% effective concentration (EC50) in assay [1] (setting [3]) is more than 10000 nM. The IC50 in assay [2] (setting [4]) came to 397 nM.
As for `CC(C)n1cc([C@@H](Nc2cc(Cl)c3ncc(C#N)c(Nc4cccc(Cl)c4F)c3c2)c2ccccc2)nn1` [Example 591, (S)-8-chloro-4-((3-chloro-2-fluorophenyl)amino)-6-(((1-isopropyl-1H-1,2,3-triazol-4-yl)(phenyl)methyl)amino) quinoline-3-carbonitrile], in assay [1] (setting [3]), the EC50 worked out at 713 nM. In addition, the half-inhibitory concentration (IC50) in assay [2] (setting [5]) was 27 nM.
As to `CC(C)(C)N1CCC(n2cc([C@@H](Nc3cc(Cl)c4ncc(C#N)c(NC56CC7CC(CC(C7)C5)C6)c4c3)c3ccccc3)nn2)CC1` [Example 637, 4-(((3R,5R,7R)-adamantan-1-yl)amino)-6-(((S)-(1-(1-(tert-butyl)piperidin-4-yl)-1H-1,2,3-triazol-4-yl)(phenyl)methyl)amino)-8-chloroquinoline-3-carbonitrile], in assay [1] (setting [3]), the EC50 turned out to be 1280 nM. Besides, the IC50 in assay [2] (setting [5]) was 36 nM.
On to `[2H][C@](Nc1cc(Cl)c2ncc(C#N)c(NC(CC)c3cnc(F)c(F)c3)c2c1)(c1ccc(F)cc1)c1cn(C2CC2)nn1` (stereo partly drawn) [Example 180, 8-chloro-6-(((S)-(1-cyclopropyl-1H-1,2,3-triazol-4-yl)(4-fluorophenyl)methyl-d)amino)-4-((1-(5,6-difluoropyridin-3-yl)propyl)amino) quinoline-3-carbonitrile], for which, in assay [1] (setting [3]), the concentration giving a half-maximal response (EC50) is 3590 nM. Also, in assay [2] (setting [4]), the IC50 is 194 nM.
For `C[C@H](CNc1c(C#N)cnc2c(Cl)cc(N[C@@H](c3ccc(Cl)cc3)c3cn(C4CCN(C(C)(C)C)CC4)nn3)cc12)c1ccccc1` [Example 658, 6-(((S)-(1-(1-(tert-butyl)piperidin-4-yl)-1H-1,2,3-triazol-4-yl)(4-chlorophenyl)methyl)amino)-8-chloro-4-(((S)-2-phenylpropyl)amino)quinoline-3-carbonitrile], the EC50 in assay [1] (setting [3]) worked out at 12200 nM. Further, the IC50 in assay [2] (setting [5]) was 27 nM.
As to `[2H][C@](Nc1cc(Cl)c2ncc(C#N)c(NCC(C)(C)C)c2c1)(c1cccc(C#N)c1)c1cn(C2CC2)nn1` [Example 341, (S)-8-chloro-6-(((3-cyanophenyl)(1-cyclopropyl-1H-1,2,3-triazol-4-yl)methyl-d)amino)-4-(neopentylamino)quinoline-3-carbonitrile], in assay [1] (setting [3]), the EC50 was determined as 71 nM. Also, in assay [2] (setting [4]), the half-maximal inhibitory concentration (IC50) came to 1 nM.
Take `Cc1c(C#N)cccc1[C@H](Nc1cc(Cl)c2ncc(C#N)c(NCC(C)(C)C(F)(F)F)c2c1)c1cn([C@@H](C)CF)nn1` [Example 1106, 8-chloro-6-(((S)-(3-cyano-2-methylphenyl)(1-((S)-1-fluoropropan-2-yl)-1H-1,2,3-triazol-4-yl)methyl)amino)-4-((3,3,3-trifluoro-2,2-dimethylpropyl)amino) quinoline-3-carbonitrile]: the concentration for a half-maximal effect (EC50) in assay [1] (setting [6]) was 76 nM. For the same compound, the half-inhibitory concentration (IC50) in assay [2] (setting [7]) was determined as 5 nM.
In the case of `CC(C)n1cc([C@@H](Nc2cc(Cl)c3ncc(C#N)c(Nc4ccc(F)c(Cl)c4)c3c2)c2cccc(N(C)S(C)(=O)=O)c2)nn1` [Example 567, (S)-N-(3-(((8-chloro-4-((3-chloro-4-fluorophenyl)amino)-3-cyanoquinolin-6-yl)amino)(1-isopropyl-1H-1,2,3-triazol-4-yl)methyl)phenyl)-N-methylmethanesulfonamide], the half-maximal effective concentration (EC50) in assay [1] (setting [3]) turned out to be 76 nM. In addition, the IC50 in assay [2] (setting [5]) stood at 3 nM.
